Measurements published in ChEMBL document CHEMBL3856237, “Synthesis and antinociceptive activity of new 2-substituted 4-(trifluoromethyl)-5,6-dihydrobenzo[h]quinazolines” (Bioorg Med Chem Lett, 2016).
Activity calls are given as the source filed them.

Assays:
Mus musculus [1] = experiment: Antinociceptive activity in Swiss mouse assessed as inhibition of capsaicin induced nociception by measuring paw licking time at 100 mg/kg administered via oral gavage for 1 hr followed by capsaicin challenge measured for 5 mins post dose relative to control; assay type: functional
Mus musculus [2] = experiment: Antinociceptive activity in CFA-induced arthritic pain Swiss mouse model assessed as inhibition of mechanical hyperalgesia by measuring paw withdrawal threshold at 100 mg/kg administered via oral gavage measured at 2 hrs post dose by Von Frey filament assay relative to control; assay type: functional
Mus musculus [3] = experiment: Antinociceptive activity in CFA-induced arthritic pain Swiss mouse model assessed as inhibition of mechanical hyperalgesia by measuring paw withdrawal threshold at 100 mg/kg administered via oral gavage measured up to 4 hrs post dose by Von Frey filament assay; assay type: functional, organism-based
Mus musculus [4] = experiment: Antinociceptive activity in CFA-induced arthritic pain Swiss mouse model assessed as inhibition of mechanical hyperalgesia by measuring paw withdrawal threshold administered via oral gavage measured at 2 hrs post dose by Von Frey filament assay; assay type: functional; conditions: for ED50: read-out: ID50 (the source's name); for minimal effective dose: read-out: MED
Mus musculus [5] = experiment: Antinociceptive activity in CFA-induced arthritic pain Swiss mouse model assessed as inhibition of mechanical hyperalgesia by measuring paw withdrawal threshold at 300 mg/kg administered via oral gavage measured at 2 hrs post dose by Von Frey filament assay relative to control; assay type: functional
Mus musculus [6] = experiment: Toxicity in Swiss mouse assessed as effect on spontaneous locomotory activity by measuring number of areas crossed at 100 mg/kg administered via oral gavage for 1 hr measured up to 5 mins post dose by open field test (reference value: 27 +/- 6 ); assay type: organism-based; conditions: in vivo
Mus musculus [7] = experiment: Toxicity in Swiss mouse assessed as effect on forced locomotory activity at 100 mg/kg administered via oral gavage for 1 hr measured up to 4 mins post dose by rotarod test; assay type: organism-based; conditions: in vivo
[8] = Solubility of the compound in DMSO; assay type: physicochemical
Mus musculus [9] = experiment: Antinociceptive activity in CFA-induced arthritic pain Swiss mouse model assessed as inhibition of mechanical hyperalgesia by measuring paw withdrawal threshold at 100 mg/kg administered via oral gavage measured up to 2 hrs post dose by Von Frey filament assay; assay type: functional, organism-based

Compound	inhibition in vivo at 100 mg/kg (Mus musculus [1]) [%]	Imax (Mus musculus [2])	inhibition (Mus musculus [3])	ED50 (Mus musculus [4]) [mg/kg]	minimal effective dose (Mus musculus [4]) [mg/kg]	Imax (Mus musculus [5]) [%]	Activity (Mus musculus [6])	Activity (Mus musculus [7])	solubility [8]	inhibition (Mus musculus [9])
CC(C(=O)O)c1cccc(C(=O)c2ccccc2)c1 (stereo unspecified) [KETOPROFEN]	81	70%	Active	144	100 to 300	75	38	Non-Toxic		
CSc1nc2c(c(C(F)(F)F)n1)CCc1ccccc1-2							23	Non-Toxic		
Nc1nc2c(c(C(F)(F)F)n1)CCc1ccccc1-2							22	Non-Toxic		
Cc1nc2c(c(C(F)(F)F)n1)CCc1ccccc1-2									Insoluble	
FC(F)(F)c1nc(-n2cccc2)nc2c1CCc1ccccc1-2	67						23	Non-Toxic	Soluble	
FC(F)(F)c1ncnc2c1CCc1ccccc1-2									Insoluble	
FC(F)(F)c1nc(-c2ccccc2)nc2c1CCc1ccccc1-2	65	64 - 71%		241	100		25	Non-Toxic	Soluble	Active
